Measurements: PubChem BioAssay AID179 (DTP/NCI, 2004)
Active and inactive are the calls of the source.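 Rule for the calls: active = compounds giving half or more protection of infected cells from virus-caused growth loss, again on retest; inactive = the rest.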

Tested on: CEM cells HIV-1 protection, formazan growth assay
Test: NCI AIDS Antiviral Assay
Conditions: for IC50: measured here: growth of uninfected CEM cells
How it was run: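 Steps: treat uninfected and HIV-1-infected human CEM cells at five drug levels; quantify growth by soluble formazan; retest any compound reaching 50% protection; classify actives from the retest.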

| Compound | EC50 [µM] | IC50 [µM] | outcome |
| --- | --- | --- | --- |
| n1onc2c1NC1Nc3nonc3NC1N2 (stereo not drawn) | > 200 | > 200 |  |
| Cc1cc(S(=O)(=O)Nc2nnc3c(C(F)(F)F)cc(Cl)cn23)c(S)cc1Cl | 166 | 170 |  |
| O=C([O-])c1ccc([I+]c2ccccc2)cc1 |  |  | inactive |
| C=CCOCn1ccc(NC(=O)c2ccccc2)nc1=O | > 200 | > 200 |  |
| NC(S(=O)(=O)O)S(=O)(=O)O | > 200 | 91.2 |  |
| COC1=C(C2(O)C(=O)N(C)c3ccccc32)C(=O)C(OC)=C(C2(O)C(=O)N(C)c3ccccc32)C1=O (stereo not drawn) | > 53.7 |  |  |
| Cc1cn(C2CC(/[N+]([O-])=N\Nc3ccc([N+](=O)[O-])cc3)C(CO)O2)c(=O)[nH]c1=O (stereo not drawn) | > 200 |  |  |
| O=C(O)CCCCC[n+]1ccccc1 | > 200 | > 200 |  |
| COc1ccc(C(=C2C(=O)OC(=O)C2=C(C)C)c2ccc(OC)cc2)cc1 | > 200 | 95.5 |  |
| O=C(N/C=C(/c1ccccc1)S(=O)Cc1ccccc1)Nc1ccccc1Cl (stereo not drawn) | > 501 | 17.4 |  |
| O=C(O)C1(C(=O)O)CCC1.[NH2-].[NH2-].[Pt+2] | > 339 | 7.94 |  |
| COc1ccc(Nc2ccc3ccccc3c2-c2c(O)ccc3ccccc23)cc1 | > 200 | 10.5 |  |
| NC(=O)NN=C1C[C@H]2CCCC[C@H]2C1 |  |  | inactive |
| N#Cc1ccc(/C=N\N2C(=O)c3ccccc3C2=O)cc1 | > 26.3 | > 26.3 |  |
| COc1ccc2c(c1OCC(=O)O)C(=O)C(CCC(=O)O)CC2 (stereo not drawn) |  |  | inactive |
| CCCCCOCC(=O)OC | > 200 | 112 |  |
| CCOC(=O)c1c(C)nn2c1ccc1ccccc12 | > 200 | 110 |  |
| Cc1cc2c(=O)cc(-c3ccc(Cl)cc3)oc2c(C(=O)O)c1C |  |  | inactive |
| OC1C(O)C2(C[C@H]1Br)OC(COCc1ccccc1)[C@@H](COCc1ccccc1)O2 (stereo partly drawn) |  |  | inactive |
| COC1CCC(C(C)O)OO1 (stereo not drawn) | > 200 | 33.9 |  |
| O=C(NC1(C(=O)O)CC1c1ccccc1)c1ccccc1 (stereo not drawn) | > 200 | > 200 |  |
| CC(C)=C1CC(C)(C)N=C1CCN1CCOCC1 | > 200 | 2.95 |  |
| C=CCC1(C(C)C(O)c2cc(OC)c(OC)c(OC)c2)CC(O)C=CC12OCCO2 (stereo not drawn) | > 200 | 9.12 |  |
| O=C1CN(c2ccc(Cl)cc2)C(=O)CN1NCNN1CC(=O)N(c2ccc(Cl)cc2)CC1=O | > 200 | > 200 |  |

| Compound | EC50 [µM] | IC50 [µM] | outcome |
| --- | --- | --- | --- |
| CCc1n[nH]c(=O)n1CCCCCCCCCCCCn1c(CC)n[nH]c1=O | > 200 | 41.7 |  |
| COC(=O)NC(Cc1ccccc1)NC(=O)OC(C)(C)C (stereo not drawn) | > 200 | > 200 |  |
| CCOC(=O)C1(C(=O)OCC)CSC1 | > 309 | > 309 |  |
| Cc1ccc2c(c1)NC(=O)CC(c1ccccc1)=N2 | > 200 | 115 |  |
| CCOC(=O)NNC(=O)C1CSC(c2ccccc2)N1C(C)=O (stereo not drawn) | > 200 | > 200 |  |
| CCOC(=O)/C(=C/c1cn(C(C)=O)c2ccccc12)P(C)(=O)OCC (stereo not drawn) | > 200 | 37.2 |  |
| CN(C)c1ccc(/C=C/C(=O)C(C)(C)C)cc1Br | > 32.4 | 21.4 |  |
| COc1cccc(NC(=O)CC(=O)N2N=C(N(CCC#N)c3ccccc3C)CC2c2ccccc2)c1 (stereo not drawn) | > 501 | > 501 |  |
| O=S(=O)(c1ccc(O)cc1)c1ccc(I)cc1 | > 200 | 64.6 |  |
| C=C(CCCC(C)OC(C)OCC)[Si](C)(C)C (stereo not drawn) | > 38.9 | > 38.9 |  |
| COc1ccc2c3ccc4c(c3n(C)c2c1)C(=O)C=CC4=O | > 3.55 | > 3.55 |  |
| NC(N)=NS(=O)(=O)c1ccc(NC(=O)c2cccc3c(NNc4ccc(S(N)(=O)=O)cc4)c4ccccc4nc23)cc1 | > 200 | 28.2 |  |
| O=C(CN1C(=O)c2ccccc2C1=O)OCC1CCCN2CCCCC12 (stereo not drawn) | > 200 | > 200 |  |
| O=C(Nc1nccs1)c1ccc(C(=O)Nc2nccs2)cc1 | > 200 | > 200 |  |
| COc1ccc(C2SC(N)=Nc3c2c(C)nn3C(=O)c2ccc(Cl)cc2)cc1 (stereo not drawn) | > 200 | 151 |  |
| Cc1c(CC/C(=N\Nc2ccc([N+](=O)[O-])cc2[N+](=O)[O-])c2ccccc2)c2ccccc2n1C |  |  | inactive |
| CNC(=O)OCCOC(=O)c1ccc(OC(=O)NC)cc1 | > 200 | 70.8 |  |
| CNc1ccc(C=C2C=CC=C2)cc1 | > 74.1 | 39.8 |  |
| COC1=CC(=O)NCCN1 | 135 | 479 |  |
| COc1cc(NC(=O)CC(C)=O)cc2c(C)cc(=O)n(C)c12 | > 200 | 117 |  |
| Cc1cc(=O)oc2c3c(cc(OC(C)C)c12)O[C@H](C)[C@@H](C)C3=O | > 200 | 40.7 |  |
| Nc1nncc2n[nH]nc12 | > 200 | 174 |  |
| O=c1[nH]c(=S)c2cncnc2n1C1OC(CO)C(O)C1O (stereo not drawn) | > 200 | > 200 |  |
| Cc1ccc2c(c1)C(=O)CC=C(C(=O)O)N2 | > 200 | > 200 |  |
